The values that follow are results of earlier work, collected in US20230405025A1, “CANNABINOID-CONTAINING COMPOSITIONS AND USE FOR TREATING AND PREVENTING DISEASES” (priority 2020, published 2023).

The data set has as its system presbyopic patient.

In the case of `CC[C@@H]1C(=O)OC[C@@H]1Cc1cncn1C` [Pilocarpine, pilocarpine], the Tolerability entry (concentrations above 0.5%, side effects red eyes, ocular pain, brow ache, headache) is recorded as “not tolerated”. For the same compound, the Distance vision result (concentrations effective enough to improve reading ability, eye rendered myopic (Gilmartin et al., 1995)) is reported as “significant decrease in the eye's distance vision”. In addition, the “Effect on accommodation of the eye” value (topical concentrations below 0.5%) is “minimal effect in the accommodation of the eye”.
